Blank lines part the entries; values can stand above or below the molecule they belong to. Bridge positions count the residues as written; N and C are the ends. Ends that are not written are not given here.
Columns and labels:
[1] = molecular target: T1, PIRT (Phosphoinositide-interacting regulator of TRP) (Homo sapiens, UniProt P0C851); test: microscale thermophoresis; […]-PIRT HSQC NMR chemical shift perturbation; assay type: binding
Calmodulin (holo) = Calmodulin (holo) (UniProt P0DP23); test: tryptophan fluorescence; details: cited from earlier work
[2] = molecular target: T1, PIRT (Phosphoinositide-interacting regulator of TRP); test: microscale thermophoresis; assay type: binding
[3] = molecular target: T2, Human PIRT (phosphoinositide-interacting regulator of TRP), fluorescently labeled for MST (human, UniProt P0C851 1-137, fluorescently labeled (dye and site not stated; by the protocol of ref. 24)); test: MST; 200 nM fluorescently labeled PIRT, peptide hormone titrated; 0.1% DPC (w/v), 50 mM HEPES, pH 7.0; room temperature; triplicate; details: both partners purified
T2 construct: Measured in 0.1% DPC micelles; The His tag is named only for the pull-down; also called MST labeled PIRT; source: purified
T2 sequence (P0C851 whole entry): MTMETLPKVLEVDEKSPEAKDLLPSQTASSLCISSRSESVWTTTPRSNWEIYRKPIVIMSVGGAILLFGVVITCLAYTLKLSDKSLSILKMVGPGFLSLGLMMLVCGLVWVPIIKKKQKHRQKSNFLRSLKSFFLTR

T1 sequence (P0C851 whole entry): as above

Kd [1]: 800 µM
Molecule: C[C@]12CC[C@@H]3c4ccc(O)cc4CC[C@H]3[C@@H]1CC[C@@H]2O [β-Estradiol]

Molecule: TRPV1 distal C-terminus (from UniProt O35433)
Kd (Calmodulin (holo)): 0.054 µM

Molecule: C=C1CC[C@H](O)C/C1=C/C=C1\CCC[C@]2(C)[C@@H]([C@H](C)CCCC(C)C)CC[C@@H]12 [Cholecalciferol]
Kd [2]: 2100 µM

Kd ([2]; read-out: Kd): 103 µM
Molecule: CC(C)CCC[C@@H](C)[C@H]1CC[C@H]2[C@@H]3CC=C4C[C@@H](OC(=O)CCC(=O)O)CC[C@]4(C)[C@H]3CC[C@]12C [cholesteryl-hemisuccinate]

Kd ([2]; read-out: Kd): 790 µM
Molecule: C[C@]12CCC(=O)C=C1CC[C@@H]1[C@@H]2[C@@H](O)C[C@@]2(C)[C@H]1CC[C@]2(O)C(=O)CO [Cortisol]

Kd [3]: 7 µM
B1: Oxytocin (peptide, UniProt P01178 20-28, looked up)
peptide: CYIQNCPLG-NH2
modifications: disulfide 1-6
notes: oxytocin, peptide hormone, cyclic nonapeptide cut from the oxytocin-neurophysin 1 precursor

— PMC7175203, “PIRT the TRP Channel Regulating Protein Binds Calmodulin and Cholesterol-Like Ligands” (Biomolecules, 2020)
